Experimental data reported in patent US20250041461A1, “[177LU] LUTETIUM-PSMA I&T COMPOSITION AND DOSIMETRY, KIT, METHOD OF MAKING, AND METHOD OF USING THEREOF” (Curium US LLC, priority 2023, published 2025).

Assay: Eclipse PK and dosimetry sub-study, 27 patients, cycle 1 biodistribution and dosimetry (SPECT/CT, OLINDA 2.2.3)
Format: in vivo, human
Details: for Absorbed Dose Mean (SD): ECLIPSE, after Cycle 1
Description: Data Acquisition: All participating sites underwent a rigorous site setup process during which all dose calibrators, scanners, and gamma counters used in the sub-study were calibrated. Sites were allowed to enroll patients in the sub-study only after the completion and approval of all site setup processes by Invicro.
Patients underwent SPECT/CT imaging, with anatomical coverage typically extending from the salivary glands to the pelvis, following the administration of a targeted 7.4±10% GBq of ^177Lu-PSMA-I&T at cycle 1. SPECT/CT imaging was performed at four timepoints: 4 h, 24 h, 48 h, and 168 h post-injection. Additionally, a subset of patients imaged at Cycle 1 (16 out of 27), were also imaged at Cycle 3 (Table 7 in Appendix 1).
Image acquisition and reconstruction protocols were standardized across all imaging timepoints and patients at each site. Furthermore, each site consistently utilized the same SPECT/CT scanner throughout the duration of the study to ensure uniformity.
In general, raw projection data was acquired into a 128×128 matrix with medium energy general purpose (MEGP) collimation using a step and shoot acquisition mode, acquiring 60 projections per detector (180 degrees rotation per detector), 20 seconds per projection, with an acquisition zoom of 1.0, and a 20% (±10%) energy window centered over 208 keV.
A low-dose CT scan was performed prior to beginning the SPECT scan for attenuation correction. Sites were instructed to use the Institutional standard parameters for acquisition of the low-dose CT. Institutional standard reconstruction parameters were used. Scatter correction was required to be applied using a 20% (±10%) scatter window centered over 170 keV.
The imaging data was analysed using Invicro's VivoQuant software, a validated software used in a 21 CFR § 11-compliant workflow. The general quantification approach was based on the principles detailed in the Medical Internal Radiation Dose (MIRD) Pamphlet No. 16,^1 No 23,2 and No 26,3 as appropriate.
SPECT images were calibrated in units of Becquerel (Bq) using a calibration factor derived from a source of known activity, measured during site set up with the same acquisition and reconstruction parameters employed for patient imaging. A patient-specific calibration factor was also derived at each clinical time point after acquisition of the patient SPECT/CT. As a quality control measure, if the patient-specific calibration factor differed by more than 10% from the site set up calibration factor, an investigation was conducted.
Volume of interest (VOI) (kidneys, bladder, liver, lumbar vertebrae L2-L4, lacrimal glands, salivary glands [parotid and submandibular glands], and whole body) were delineated on each dataset by a trained image analyst. […] Organs were segmented either by drawing the entire contour of the organ, or by placing a sphere in a representative region of the organ and then multiplying by the organ's effective mass (based on patient's height and weight).^4 Segmentation methods for each organ are specified in Table 1 and were consistently applied to each patient.
Clearance of the radiopharmaceutical was derived from a data-appropriate fit of each organ's TAC. Depending on the TAC's shape, the data was fitted with the sum of one, two, or three exponentials, or using a rise and fall model. Fitting was performed with in-house Python software. TIACs were calculated through analytical integration of the curve fit extrapolated to infinity. […] A whole-body TAC was derived from delineating the imaged body. The remainder activity was determined by subtracting the cumulative organ TIACs from the whole body TIAC.
Organ TIACs were input into OLINDA 2.2.3 for the computation of organ and whole-body absorbed doses, using International Commission on Radiological Protection (ICRP)-103 weighing factors. The ICRP-89 derived male phantom was used for dose estimation. […]

O=C([O-])CC[C@H](NC(=O)N[C@@H](CCCCNC(=O)CCCCCCC(=O)NCCCC[C@@H](NC(=O)[C@@H](Cc1ccccc1)NC(=O)[C@@H](Cc1ccc(O)c(I)c1)NC(=O)CC[C@H](C(=O)[O-])N1CCN(CC(=O)[O-])CCN(CC(=O)[O-])CCN(CC(=O)[O-])CC1)C(=O)[O-])C(=O)[O-])C(=O)[O-].[177Lu+3].[H+].[H+].[H+].[H+].[H+] [^177Lu-PSMA I&T, (3S,7S,26R,29R,32R,37R)-29-benzyl-32-(4-hydroxy-3-iodobenzyl)-5,13,20,28,31,34-hexaoxo-37-(4,7,10-tris(carboxymethyl)-1,4,7,10-tetraazacyclododecan-1-yl)-4,6,12,21,27,30,33-heptaazaheptatriacontane-1,3,7,26,37-pentacarboxylic acid; lutetium-177 (III)]
Absorbed Dose Mean (SD) (Bladder): 0.41 (0.05) Gy/GBq
Absorbed Dose Mean (SD) (Bone Marrow): 0.08 (0.12) Gy/GBq
Absorbed Dose, Adrenals, Mean (Cycle 1, n = 26): 0.02 Gy/GBq
Absorbed Dose, Adrenals, max (Cycle 1, n = 26): 0.08 Gy/GBq
Absorbed Dose, Adrenals, median (Cycle 1, n = 26): 0.02 Gy/GBq
Absorbed Dose, Adrenals, min (Cycle 1, n = 26): 0.01 Gy/GBq
Absorbed Dose, Brain, Mean (Cycle 1, n = 26): 0.01 Gy/GBq
Absorbed Dose, Brain, max (Cycle 1, n = 26): 0.07 Gy/GBq
Absorbed Dose, Brain, median (Cycle 1, n = 26): 0.01 Gy/GBq
Absorbed Dose, Brain, min (Cycle 1, n = 26): 0.00 Gy/GBq
Absorbed Dose, Esophagus, Mean (Cycle 1, n = 26): 0.02 Gy/GBq
Absorbed Dose, Esophagus, max (Cycle 1, n = 26): 0.07 Gy/GBq
Absorbed Dose, Esophagus, median (Cycle 1, n = 26): 0.01 Gy/GBq
Absorbed Dose, Esophagus, min (Cycle 1, n = 26): 0.00 Gy/GBq
Absorbed Dose, Eyes, Mean (Cycle 1, n = 26): 0.01 Gy/GBq
Absorbed Dose, Eyes, max (Cycle 1, n = 26): 0.07 Gy/GBq
Absorbed Dose, Eyes, median (Cycle 1, n = 26): 0.01 Gy/GBq
Absorbed Dose, Eyes, min (Cycle 1, n = 26): 0.00 Gy/GBq
Absorbed Dose, Gallbladder wall, Mean (Cycle 1, n = 26): 0.02 Gy/GBq
Absorbed Dose, Gallbladder wall, max (Cycle 1, n = 26): 0.07 Gy/GBq
Absorbed Dose, Gallbladder wall, median (Cycle 1, n = 26): 0.01 Gy/GBq
Absorbed Dose, Gallbladder wall, min (Cycle 1, n = 26): 0.00 Gy/GBq
Absorbed Dose, Heart wall, Mean (Cycle 1, n = 26): 0.02 Gy/GBq
Absorbed Dose, Heart wall, max (Cycle 1, n = 26): 0.07 Gy/GBq
Absorbed Dose, Heart wall, median (Cycle 1, n = 26): 0.01 Gy/GBq
Absorbed Dose, Heart wall, min (Cycle 1, n = 26): 0.00 Gy/GBq
Absorbed Dose, Kidneys, Mean (Cycle 1, n = 26): 0.41 Gy/GBq
Absorbed Dose, Kidneys, max (Cycle 1, n = 26): 0.81 Gy/GBq
Absorbed Dose, Kidneys, median (Cycle 1, n = 26): 0.37 Gy/GBq
Absorbed Dose, Kidneys, min (Cycle 1, n = 26): 0.17 Gy/GBq
Absorbed Dose, Lacrimal Glands, Mean (Cycle 1, n = 26): 0.40 Gy/GBq
Absorbed Dose, Lacrimal Glands, max (Cycle 1, n = 26): 1.19 Gy/GBq
Absorbed Dose, Lacrimal Glands, median (Cycle 1, n = 26): 0.26 Gy/GBq
Absorbed Dose, Lacrimal Glands, min (Cycle 1, n = 26): 0.04 Gy/GBq
Absorbed Dose, Left colon, Mean (Cycle 1, n = 26): 0.47 Gy/GBq
Absorbed Dose, Left colon, max (Cycle 1, n = 26): 1.53 Gy/GBq
Absorbed Dose, Left colon, median (Cycle 1, n = 26): 0.41 Gy/GBq
Absorbed Dose, Left colon, min (Cycle 1, n = 26): 0.01 Gy/GBq
Absorbed Dose, Liver, Mean (Cycle 1, n = 26): 0.04 Gy/GBq
Absorbed Dose, Liver, max (Cycle 1, n = 26): 0.10 Gy/GBq
Absorbed Dose, Liver, median (Cycle 1, n = 26): 0.03 Gy/GBq
Absorbed Dose, Liver, min (Cycle 1, n = 26): 0.01 Gy/GBq
Absorbed Dose, Lungs, Mean (Cycle 1, n = 26): 0.01 Gy/GBq
Absorbed Dose, Lungs, max (Cycle 1, n = 26): 0.07 Gy/GBq
Absorbed Dose, Lungs, median (Cycle 1, n = 26): 0.01 Gy/GBq
Absorbed Dose, Lungs, min (Cycle 1, n = 26): 0.00 Gy/GBq
Absorbed Dose, Osteogenic cells, Mean (Cycle 1, n = 26): 0.05 Gy/GBq
Absorbed Dose, Osteogenic cells, max (Cycle 1, n = 26): 0.29 Gy/GBq
Absorbed Dose, Osteogenic cells, median (Cycle 1, n = 26): 0.02 Gy/GBq
Absorbed Dose, Osteogenic cells, min (Cycle 1, n = 26): 0.00 Gy/GBq
Absorbed Dose, Pancreas, Mean (Cycle 1, n = 26): 0.02 Gy/GBq
Absorbed Dose, Pancreas, max (Cycle 1, n = 26): 0.07 Gy/GBq
Absorbed Dose, Pancreas, median (Cycle 1, n = 26): 0.01 Gy/GBq
Absorbed Dose, Pancreas, min (Cycle 1, n = 26): 0.00 Gy/GBq
Absorbed Dose, Prostate, Mean (Cycle 1, n = 26): 0.02 Gy/GBq
Absorbed Dose, Prostate, max (Cycle 1, n = 26): 0.07 Gy/GBq
Absorbed Dose, Prostate, median (Cycle 1, n = 26): 0.01 Gy/GBq
Absorbed Dose, Prostate, min (Cycle 1, n = 26): 0.01 Gy/GBq
Absorbed Dose, Rectum, Mean (Cycle 1, n = 26): 0.44 Gy/GBq
Absorbed Dose, Rectum, max (Cycle 1, n = 26): 1.46 Gy/GBq
Absorbed Dose, Rectum, median (Cycle 1, n = 26): 0.39 Gy/GBq
Absorbed Dose, Rectum, min (Cycle 1, n = 26): 0.01 Gy/GBq
Absorbed Dose, Red Marrow, Mean (Cycle 1, n = 26): 0.08 Gy/GBq
